Experimental data reported in patent publication US11780868B1, “Homoleptic metal coordination complexes as antifungal agents” (King Abdulaziz University, priority 2023, dated 2023).

How the values were obtained:
Assay type in all cases: cell-based, Candida albicans
C. albicans 4251 = test: JC-10 mitochondrial membrane potential assay; details: 4 h, negative control 2.65
Method: (§1) To examine the effect of C1 on the induction of cellular apoptosis in C. albicans cells, crucial apoptotic markers were observed. For this purpose, C. albicans 4251 and C. albicans 5112 cells were subjected to protoplast preparation by utilizing a method described previously by Srivastava et al. in 2020 through their research study. […] Later on, the cells were washed and incubated for 10 min at room temperature in protoplast buffer-1 (1M sorbitol, 0.05M tris base, 0.01M MgCl2, 0.03M DTT, pH 7.4). The cells were spun at 1500 rpm for 5 min and the pellet was resuspended in protoplast buffer-2 (1M sorbitol, 0.05M tris base, 0.01M MgCl2, 0.001M DTT, pH 7.4) supplemented with […] enzyme (1 μg/mL) and incubated for 1 h at room temperature. Afterwards, the cell suspension was again centrifuged, and the pellet was resuspended and incubated for 20 min at room temperature in protoplast buffer-3 (1M sorbitol, 0.05M tris base, 0.01M MgCl2, pH 7.4). A final washing (1500 rpm for 5 min) was given to the cells and the pellet consisting of C. albicans protoplasts was resuspended in fresh PBS and was stored at 4° C. until further use. Measurement of mitochondrial membrane potential in C. albicans was carried out and the potential of C1 in destabilising mitochondrial membrane potential (Δψm) in C. albicans was established by JC-10 mitochondrial membrane potential assay kit (Abeam, Cambridge, UK). The experiment was performed according to manufacturer instructions. 90 μL of prepared protoplast of C. albicans 4251 and C. albicans 5112 was added to a 96-well microplate (with black walls and clear bottom), followed by the addition of 50 μL/well of JC-10 dye-loading solution. The microplate was incubated for 1 hour at 37° C. in the dark. This was followed by the addition of 50 μL/well of assay buffer B. The microplate was then immediately centrifuged at 800 rpm for 2 minutes. The fluorescence intensity was monitored at an Ex/Em=490/530 nm (present in apoptotic cells, monomeric form and green fluorescence; represented as X) and 540/590 nm (present in live cells, dye aggregates and red fluorescence; represented as Y) using a SpectraMax® ID3 Multimode Plate Reader (Molecular Devices, LLC., USA). The ratio between the aggregate and monomeric forms was measured to find the change in mitochondrial membrane potential. The mitochondrial membrane depolarization is indicated by decreasing ratio values.

C. albicans 5112 = test: JC-10 mitochondrial membrane potential assay; details: 4 h, negative control 2.92
Method: as §1

C. albicans cells = test: TUNEL assay for DNA fragmentation; details: 0.5×MIC and 1×MIC, concentration dependent
Method: To examine the effect of C1 on the induction of cellular apoptosis in C. albicans cells, crucial apoptotic markers were observed. For this purpose, C. albicans 4251 and C. albicans 5112 cells were subjected to protoplast preparation by utilizing a method described previously by Srivastava et al. in 2020 through their research study. Briefly, cells were grown overnight and were exposed for 4 h with different concentrations of C1 (0.5×MIC and 1×MIC) and H2O2 (positive control) whereas, untreated cells were used as a negative control. Later on, the cells were washed and incubated for 10 min at room temperature in protoplast buffer-1 (1M sorbitol, 0.05M tris base, 0.01M MgCl2, 0.03M DTT, pH 7.4). The cells were spun at 1500 rpm for 5 min and the pellet was resuspended in protoplast buffer-2 (1M sorbitol, 0.05M tris base, 0.01M MgCl2, 0.001M DTT, pH 7.4) supplemented with lyticase enzyme (1 μg/mL) and incubated for 1 h at room temperature. […]
We further performed an assay to detect the presence of DNA damage in C. albicans, an indicator of late-stage apoptosis. […] The protoplasts were again washed with PBS and all the samples were examined under a fluorescence microscope using Zeiss Laser Scanning Confocal Microscope (LSM) 780 (Carl Zeiss Microscopy, Jena, Germany). […]

`Brc1ccc([O][Co][O]c2ccc(Br)cc2C=Nc2ccc3c(c2)OCCO3)c(C=Nc2ccc3c(c2)OCCO3)c1` [Complex C1, [Co(L)2]] was tested, and the “average fluorescence ratio JC-10 aggregates/JC-10 monomers” value (C. albicans 4251; C. albicans 4251, 0.5×MIC) was 2.04, the “average fluorescence ratio JC-10 aggregates/JC-10 monomers” value (C. albicans 4251; C. albicans 4251, 1×MIC) was 1.6 and the “average fluorescence ratio JC-10 aggregates/JC-10 monomers” value (C. albicans 5112; C. albicans 5112, 0.5×MIC) was 2.24. The “average fluorescence ratio JC-10 aggregates/JC-10 monomers” value (C. albicans 5112; C. albicans 5112, 1×MIC) was 1.71 and the “DNA fragmentation (TUNEL-positive cells)” value (C. albicans cells) was “effective at inducing DNA fragmentation”.
